Data reported in paper PMC3750315, “The production and characterization of a new active lipase from Acremonium alcalophilum using a plant bioreactor” (Biotechnology for Biofuels, 2013).

Each compound was assayed against T1, LipA (Sodiomyces alcalophilus, UniProt P0CT91) (assay: p-nitrophenol release, […] nm). Conditions: 100 mM phosphate buffer pH 8.0, 40°C.
T1 construct: Transient in Nicotiana benthamiana; vector adds Pr1b signal peptide, Xpress tag, C-myc tag, KDEL (tags kept); N-glycosylated, about 56 kDa on SDS-PAGE
Assay type: biochemical

T1 sequence (P0CT91 23-416): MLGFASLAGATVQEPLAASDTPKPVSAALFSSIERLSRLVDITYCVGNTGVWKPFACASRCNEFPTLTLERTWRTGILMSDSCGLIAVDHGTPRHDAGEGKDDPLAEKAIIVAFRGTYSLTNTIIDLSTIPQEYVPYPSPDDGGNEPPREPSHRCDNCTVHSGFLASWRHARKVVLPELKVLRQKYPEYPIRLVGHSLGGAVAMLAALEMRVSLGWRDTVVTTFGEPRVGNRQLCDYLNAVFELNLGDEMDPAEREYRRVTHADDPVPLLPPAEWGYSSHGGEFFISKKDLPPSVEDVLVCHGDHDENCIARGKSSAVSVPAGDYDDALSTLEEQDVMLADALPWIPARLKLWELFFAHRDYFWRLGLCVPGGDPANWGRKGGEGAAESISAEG

| Km | Structure (SMILES) |
| --- | --- |
| 160 µM | CCCC(=O)Oc1ccc([N+](=O)[O-])cc1 [pNP butyrate (C4)] |
| 100 µM | CCCCCCCCCCCCCCCC(=O)Oc1ccc([N+](=O)[O-])cc1 [pNP palmitate (C16)] |

Continued, compound first:

| Structure (SMILES) | Km |
| --- | --- |
| CC(=O)Oc1ccc([N+](=O)[O-])cc1 [pNP acetate (C2)] | 150 µM |
| CCCCCCCC(=O)Oc1ccc([N+](=O)[O-])cc1 [pNP caprylate (C8)] | 100 µM |
| CCCCCCCCCCCCCC(=O)Oc1ccc([N+](=O)[O-])cc1 [pNP myristate (C14)] | 70 µM |
